Results: US6127333A, “Conjugates useful in the treatment of prostate cancer” (priority 1998, dated 2000)

Molecular target: T1, York PSA (enzymatically active free PSA) (Homo sapiens, UniProt P07288)
T1 construct: 50% cleavage of the noted oligopeptide-cytotoxic agent conjugates with enzymatically active free PSA
Assay: Recognition/cleavage of oligopeptide-vinca drug conjugates by free PSA
Assay type: biochemical
Settings: PSA digestion buffer pH7.4, conjugate to PSA molar ratio 100 to 1, HPLC; when n > 1 value is an average
Method: Alternatively, the PSA digestion buffer utilized is 50 mM tris(hydroxymethyl)aminomethane pH7.4, 140 mM NaCl. The reaction is quenched after various reaction times by the addition of trifluoroacetic acid (TFA) to a final 1% (volume/volume). Alternatively the reaction is quenched with 10 mM ZnCl2. The quenched reaction was analyzed by HPLC on a reversed-phase C18 column using an aqueous 0.1%TFA/acetonitrile gradient. […] Unless otherwise indicated, the acetate salt of the conjugate was tested.

T1 sequence (P07288 25-261): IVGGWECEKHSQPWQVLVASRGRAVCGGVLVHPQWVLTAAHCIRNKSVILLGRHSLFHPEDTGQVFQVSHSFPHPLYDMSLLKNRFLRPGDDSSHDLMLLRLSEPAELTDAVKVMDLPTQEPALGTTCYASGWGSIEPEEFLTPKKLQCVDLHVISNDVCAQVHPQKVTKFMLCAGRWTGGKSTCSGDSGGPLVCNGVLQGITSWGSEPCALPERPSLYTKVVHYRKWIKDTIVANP

| Substance | Time to 50% Substrate Cleavage by York PSA [min] |
| --- | --- |
| 4-des-Acetylvinblastine-23-(N-Acetyl-Ser-Ser-Ser-Chg-Gln-Ser-Val-BDAM) amide acetate salt [Ac-SSSChgQSV-1,4-BDAM-(dAc)-VIN] | 10 |
| 4-des-Acetylvinblastine-23-(N-methoxy-diethyleneoxyacetyl-4-trans-L-Hyp-Ser-Ser-Chg-Gln-Ser-Val-BDAM) amide acetate salt | 14 |
